The source of these data is patent US7625711B2, “Screening method for the identification of a drug for the development of an agent for prevention and/or treatment of Alzheimer's disease” (Hisamitsu Pharmaceutical Co., Inc., priority 2003, dated 2009).

What all share (assay type): cell-based, human
For one test, the system named is SH-SY5Y cells. Description: Cell viability assay (MTT method) after cisplatin treatment. The conditions noted are these: SH-SY5Y cells treated with cisplatin, FIG. 14. Here is the method:
SH-SY5Y cells, which are a neuroblastoma cell line, are used as tumor cells. SH-SY5Y cells are treated with cisplatin, and then the cell viability is measured by the MTT method. FIG. 14 is a graph showing the relationship between the amount of cisplatin and the cell viability of SH-SY5Y cells. The cell viability was determined by a modified 3-(4,5-dimethylthiazol-2-yl)-2,5-diphenyltetrazolium bromide (MTT) assay. Specifically, […] cells were plated on 100 μl of complete medium in a 96-well micro titer plate (5×10^3 cells/well), and made to adhere thereto. On the next day, the medium was changed, and the cells were treated with cisplatin for 24 hours. In the MTT assay, 10 μl of MTT solution was added to each well, and incubated at 37° C. for 3 hours. The absorbance of the wells at 570 nm was measured using a microplate reader (Type 450, Bio-Rad Laboratories).
For orientation: Tetrazolium assays rely on reduction of a dye to a coloured formazan, in cell work by metabolically active cells.

The next test concerns p53. Briefly: Immunoblotting of cisplatin-treated SH-SY5Y cells with anti-p53 antibody. To be noted: FIG. 15. Here is the method: (§1) Next, products obtained by cisplatin treatment of SH-SY5Y cells are analyzed by immunoblotting and immunoprecipitation. Specifically, SH-SY5Y cells are treated with cisplatin, and then the expression levels of p53, p21, βAPP and actin are analyzed by immunoblotting. Moreover, an interaction between a βAPP-derived product and p53 is analyzed by immunoprecipitation and immunoblotting. FIG. 15 is diagrams showing the result of immunoblotting analysis of products obtained by cisplatin treatment of SH-SY5Y cells. In the figure, “IP” means immunoprecipitation, and “IB” means immunoblotting. The second diagram from the top in FIG. 15 is a diagram showing the result of immunoblotting analysis using anti-p53 antibody. […] The third diagram from the top in FIG. 15 is a diagram showing the result of immunoblotting analysis using anti-p21 antibody. […] The uppermost diagram in FIG. 15 is a diagram showing the result of immunoprecipitation of a cell lysate (homogenate) using anti-βAPP antibody, and immunoblotting analysis of the immunoprecipitate using anti-p53 antibody. […] Since βAPP is present on the membrane and p53 is present in the nucleus, it is unlikely that there is physical binding therebetween.

Another test deals with p21. Briefly: Immunoblotting of cisplatin-treated SH-SY5Y cells with anti-p21 antibody. To be noted: FIG. 15. Here is the method:
as §1
In general terms: Immunoblotting shows a protein as a band on a membrane.

For test [1], the system named is βAPP-derived product and p53. Description: Immunoprecipitation with anti-βAPP antibody and immunoblotting with anti-p53 antibody of cisplatin-treated SH-SY5Y cells. The conditions noted are these: SH-SY5Y cell lysate, IP anti-βAPP, IB anti-p53, FIG. 15. The procedure:
as §1

Turning to `N.N.[Cl][Pt][Cl]` [cisplatin], the “cell viability of SH-SY5Y cells” value in the test on SH-SY5Y cells is “the number of SH-SY5Y cells decreases depending on the dosage of cisplatin”. The “induction of endogenous p53” value with p53 is reported as “the induction of endogenous p53 by cisplatin can be seen”. Further, in the test with p21, the “expression of p21” value is “p53 expressed during the cisplatin treatment promotes the expression of p21”. The “physical binding between a βAPP-derived product and p53” value in test [1] is listed as “p53 is present in the cisplatin treatment group”.
